Laboratory results reported in patent US20090203753A1, “7-(2-amino-1-hydroxy-ethyl)-4-hydroxybenzothiazol-2(3H)-one-derivatives as beta2 adrenoreceptor agonists” (AstraZeneca AB, priority 2005, published 2009).

Biological target: T1, recombinant human α1D receptor (Homo sapiens, UniProt P25100)
T1 construct: expressed in transfected cells; host or cells: HEK293
T1 sequence (P25100 1-572): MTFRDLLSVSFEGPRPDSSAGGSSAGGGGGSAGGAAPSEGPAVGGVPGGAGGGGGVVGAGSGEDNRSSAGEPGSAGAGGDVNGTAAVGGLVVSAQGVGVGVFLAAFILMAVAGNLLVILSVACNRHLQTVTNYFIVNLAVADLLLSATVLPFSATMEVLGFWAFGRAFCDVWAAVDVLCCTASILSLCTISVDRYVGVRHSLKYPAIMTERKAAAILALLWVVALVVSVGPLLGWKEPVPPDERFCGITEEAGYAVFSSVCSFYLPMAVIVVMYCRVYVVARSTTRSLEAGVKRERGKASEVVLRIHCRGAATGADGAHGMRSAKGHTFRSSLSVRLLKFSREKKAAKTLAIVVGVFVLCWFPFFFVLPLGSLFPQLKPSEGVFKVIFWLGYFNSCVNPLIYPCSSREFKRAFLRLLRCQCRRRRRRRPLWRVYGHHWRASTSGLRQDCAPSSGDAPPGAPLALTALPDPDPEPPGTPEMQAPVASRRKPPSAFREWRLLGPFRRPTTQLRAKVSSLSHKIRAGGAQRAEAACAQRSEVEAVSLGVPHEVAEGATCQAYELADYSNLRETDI
Test: Adrenergic α1D selectivity assay, [3H]-prazosin binding to HEK293 membranes
Conditions: read-out: α1 bind pIC50 (converted)
Protocol: Membranes were prepared from human embryonic kidney 293 (HEK293) cells expressing recombinant human α1D receptor. These were diluted in Assay Buffer (50 mM HEPES, 1 mM EDTA, 0.1% gelatin, pH 7.4) to provide a final concentration of membranes that gave a clear window between maximum and minimum specific binding.
Assays were performed in U-bottomed 96-well polypropylene plates. 10 μL [^3H]-prazosin (0.3 nM final concentration) and 10 μL of test compound (10× final concentration) were added to each test well. For each assay plate 8 replicates were obtained for [^3H]-prazosin binding in the presence of 10 μL vehicle (10% (v/v) DMSO in Assay Buffer; defining maximum binding) or 10 μL BMY7378 (10 μM final concentration; defining non-specific binding (NSB)). Membranes were then added to achieve a final volume of 100 μL. The plates were incubated for 2 hours at room temperature and then filtered onto PEI coated GF/B filter plates, pre-soaked for 1 hour in Assay Buffer, using a 96-well plate Tomtec cell harvester. Five washes with 250 μL wash buffer (50 mM HEPES, 1 mM EDTA, pH 7.4) were performed at 4° C. to remove unbound radioactivity. The plates were dried then sealed from underneath using Packard plate sealers and MicroScint-O (50 μL) was added to each well. The plates were sealed (TopSeal A) and filter-bound radioactivity was measured with a scintillation counter (TopCount, Packard BioScience) using a 3-minute counting protocol.
Total specific binding (B0) was determined by subtracting the mean NSB from the mean maximum binding. NSB values were also subtracted from values from all other wells.

IC50: 5.01 µM
Structure (SMILES): CCN(CC)CCN(CCNC[C@H](O)c1ccc(O)c2[nH]c(=O)sc12)C(=O)CCOCCc1ccccc1 [Example 7, N-[2-(Diethylamino)ethyl]-N-(2-{[(2R)-2-hydroxy-2-(4-hydroxy-2-oxo-2,3-dihydro-1,3-benzothiazol-7-yl)ethyl]amino}ethyl)-3-(2-phenylethoxy)propanamide]
